Values joined by “and” are separate entries in the source; they are usually repeats but may differ in a detail not shown here. Equal values may be shown once. Read-outs that look alike come from different tables or passages of the source.
Legend:
[1] = Rat 24-h continuous intravenous infusion GLP toxicity study; format: in vivo, Sprague-Dawley rats; details: Fig 6C reference line 0 to 72 h
[2] = Human pharmacokinetic, Ceff and dose predictions; details: Fig 6C reference line, drawn from 0 to 72 h; head gives 500 nM
HCoV-229E = experiment: Viral CPE assay in MRC-5 cells (CellTiter Glo); format: cell-based
MRC-5 cells = experiment: Cytotoxicity in MRC-5 cells
[3] = tested on: SARS-CoV-2 Washington strain 1 (USA_WA1/2020); format: cell-based; parameters: Percent Effect / Percent Effect (EC50 data): scale not given: direction of the effect not stated beside the values
[4] = read-out: competitive Ki; vendor-verified compound file; ref Simcyp library; cited from earlier work
MDR1/P-gp = MDR1/P-gp (Homo sapiens, UniProt P08183); experiment: Transporter inhibition using membrane vesicles; details: uptake of N-methyl quinidine by MDR1; control inhibitor concentration 4.000 uM; single replicates
MDR1/P-gp, sequence (P08183 whole entry): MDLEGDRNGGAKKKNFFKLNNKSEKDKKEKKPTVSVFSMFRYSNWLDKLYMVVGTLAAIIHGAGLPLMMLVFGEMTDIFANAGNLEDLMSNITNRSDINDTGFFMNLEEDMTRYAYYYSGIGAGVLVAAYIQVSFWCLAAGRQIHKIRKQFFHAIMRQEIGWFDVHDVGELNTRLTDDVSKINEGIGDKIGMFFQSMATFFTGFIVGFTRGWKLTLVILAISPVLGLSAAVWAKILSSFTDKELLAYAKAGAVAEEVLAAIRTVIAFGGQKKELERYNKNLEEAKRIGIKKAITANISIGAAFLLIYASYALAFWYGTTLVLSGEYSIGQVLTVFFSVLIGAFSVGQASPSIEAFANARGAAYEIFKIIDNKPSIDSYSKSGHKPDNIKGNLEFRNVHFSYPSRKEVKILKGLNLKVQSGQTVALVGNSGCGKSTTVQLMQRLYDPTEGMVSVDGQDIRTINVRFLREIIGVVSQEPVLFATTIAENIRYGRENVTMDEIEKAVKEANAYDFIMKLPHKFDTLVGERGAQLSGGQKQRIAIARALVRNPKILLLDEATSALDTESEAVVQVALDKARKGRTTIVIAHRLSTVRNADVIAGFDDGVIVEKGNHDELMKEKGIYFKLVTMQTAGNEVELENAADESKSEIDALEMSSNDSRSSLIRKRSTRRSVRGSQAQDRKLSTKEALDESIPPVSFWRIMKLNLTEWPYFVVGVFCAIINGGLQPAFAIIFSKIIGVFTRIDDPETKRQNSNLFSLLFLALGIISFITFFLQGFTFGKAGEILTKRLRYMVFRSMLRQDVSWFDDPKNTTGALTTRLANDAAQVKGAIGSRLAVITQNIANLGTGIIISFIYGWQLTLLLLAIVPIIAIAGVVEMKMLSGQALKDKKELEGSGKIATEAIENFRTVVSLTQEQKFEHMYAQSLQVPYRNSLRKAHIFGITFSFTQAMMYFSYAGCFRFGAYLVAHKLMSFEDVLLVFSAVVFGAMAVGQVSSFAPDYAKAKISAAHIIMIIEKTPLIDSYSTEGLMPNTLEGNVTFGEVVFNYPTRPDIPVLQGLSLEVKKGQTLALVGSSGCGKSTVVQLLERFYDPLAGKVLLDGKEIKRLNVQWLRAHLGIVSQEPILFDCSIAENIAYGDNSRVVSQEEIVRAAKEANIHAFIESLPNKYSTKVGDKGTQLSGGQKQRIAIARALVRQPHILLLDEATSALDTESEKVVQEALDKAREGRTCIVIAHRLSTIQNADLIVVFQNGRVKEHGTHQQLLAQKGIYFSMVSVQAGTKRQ

COc1cccc2[nH]c(C(=O)N[C@@H](CC(C)C)C(=O)N[C@@H](C[C@@H]3CCNC3=O)C(=O)COP(=O)(O)O)cc12 [Pf-4814]
Reg tox Day 1 Rat with Pf-4814 Actove (Cave, uM) ([1]; Day 1, dosed with Pf-4814, Cave of active): 10.7 µM

COc1cccc2[nH]c(C(=O)N[C@@H](CC(C)C)C(=O)N[C@@H](C[C@@H]3CCNC3=O)C(=O)CO)cc12 [Active]
Ceff SARS-COV2 (+P-gp inhib)= 500 nM [2]: 0.5

COc1cccc2[nH]c(C(=O)N[C@@H](CC(C)C)C(=O)N[C@@H](C[C@@H]3CCNC3=O)C(=O)COP(=O)(O)O)cc12 [PF-07304814-00]
% Well Effect (EC50 data) (HCoV-229E; minus efflux inhibitor, 0.000949 uM): 1.31% and -4.82% and -7.06% and -4.29% and -0.06% | % Well Effect (EC50 data) (HCoV-229E; minus efflux inhibitor, 0.300053 uM): 80.07% and 80.97% and 97.35% and 80.44% and 65.29% and 92.74% | % Well Effect (EC50 data) (HCoV-229E; minus efflux inhibitor, 0.948767 uM): 81.04% and 93.59% and 91.22% and 85.19% and 91.91% and 88.72% | % Well Effect (EC50 data) (HCoV-229E; minus efflux inhibitor, 3 uM): 79.54% and 90.29% and 94.42% and 83.20% and 94.29% and 89.17% | % Well Effect (EC50 data) (HCoV-229E; plus 0.5 uM efflux inhibitor, 0.094893 uM): 70.28% and 62.16% and 55.71% and 62.75% and 53.71% and 73.85% | % Well Effect (EC50 data) (HCoV-229E; plus 0.5 uM efflux inhibitor, 0.300053 uM): 83.32% and 95.05% and 90.93% and 79.15% and 93.97% and 90.05% | % Well Effect (EC50 data) (HCoV-229E; plus 0.5 uM efflux inhibitor, 0.948767 uM): 82.39% and 96.75% and 87.38% and 79.38% and 95.45% and 97.43% | % Well Effect (EC50 data) (HCoV-229E; plus 0.5 uM efflux inhibitor, 3 uM): 80.02% and 92.89% and 93.90% and 81.60% and 91.07% and 95.86% | % Well Effect (CC50 data) (MRC-5 cells; minus efflux inhibitor, 0.031642 uM): -10.74% | % Well Effect (CC50 data) (MRC-5 cells; minus efflux inhibitor, 0.100053 uM): -6.45% and -4.39% | % Well Effect (CC50 data) (MRC-5 cells; minus efflux inhibitor, 3.16311 uM): -8.68% | % Well Effect (CC50 data) (MRC-5 cells; minus efflux inhibitor, 10.0018 uM): -6.54% | % Well Effect (CC50 data) (MRC-5 cells; plus 0.5 uM efflux inhibitor, 0.031642 uM): -2.54% and -3.43% | % Well Effect (CC50 data) (MRC-5 cells; plus 0.5 uM efflux inhibitor, 0.100053 uM): -2.51% and -2.24% and 4.92% | % Well Effect (CC50 data) (MRC-5 cells; plus 0.5 uM efflux inhibitor, 1.00035 uM): -1.28% and -4.08% | % Well Effect (CC50 data) (MRC-5 cells; plus 0.5 uM efflux inhibitor, 3.16311 uM): 5.87% and 5.13% | % Well Effect (CC50 data) (MRC-5 cells; plus 0.5 uM efflux inhibitor, 31.6256 uM): -2.89% and -4.52% | % Well Effect (CC50 data) (MRC-5 cells; plus 0.5 uM efflux inhibitor, 100 uM): 2.77% and -3.47% and 5.60% and -0.62% | Percent Effect ([3]; 0.00976562 uM): 0.053% and 0.085% | Percent Effect ([3]; 0.0195312 uM): 2.09% and 3.15% | Percent Effect ([3]; 0.0390625 uM): 0.085% and 9.35% | Percent Effect ([3]; 0.078125 uM): -0.27% and 0.54% | Percent Effect (EC50 data) ([3]; 0.195312 uM): -0.82% | Percent Effect ([3]; 0.3125 uM): 2.28% and 1.63% | Percent Effect ([3]; 0.390625 uM): 7.76% and 0.81% and 1.70% and 4.09% and 0.21% and 2.38% and 2.51% and 3.73% | Percent Effect (EC50 data) ([3]; 0.390625 uM): -0.72% | Percent Effect ([3]; 0.625 uM): -1.46% and -0.53% | Percent Effect (EC50 data) ([3]; 0.78125 uM): 8.72% and 9.53% | Percent Effect (EC50 data) ([3]; 3.125 uM): 96.73% and 101.34% | Percent Effect (EC50 data) ([3]; 5 uM): 98.13% and 94.20% | Percent Effect (EC50 data) ([3]; 6.25 uM): 105.65% and 94.43% | Percent Effect (EC50 data) ([3]; 25 uM): 105.56% | Percent Effect (EC50 data) ([3]; 31.6456 uM): 95.69% and 95.38% and 91.49% and 94.38% | Percent Effect (EC50 data) ([3]; 50 uM): 95.66% | Percent Effect (EC50 data) ([3]; 100 uM): 87.92% and 94.81% and 91.90% and 95.50%

COc1cccc2[nH]c(C(=O)N[C@@H](CC(C)C)C(=O)N[C@@H](C[C@@H]3CCNC3=O)C(=O)CO)cc12 [Pf-5231]
Reg tox Day 1 Rat with Pf-5231 Actove (Cave,uM) ([1]; Day 1, dosed with Pf-5231, Cave of active): 10.7 µM

CC(O)C(C)n1ncn(-c2ccc(N3CCN(c4ccc(OCC5COC(Cn6cncn6)(c6ccc(Cl)cc6Cl)O5)cc4)CC3)cc2)c1=O (stereo not drawn) [OH-itraconazole]
Ki [4]: 0.0023 µM

COc1cccc2[nH]c(C(=O)N[C@@H](CC(C)C)C(=O)N[C@@H](C[C@@H]3CCNC3=O)C(=O)COP(=O)(O)O)cc12 [PF-073048141]
CC50 (VeroE6-EGFP cells): > 50 µM | CC50 (VeroE6-EGFP cells; n=2): > 50 µM

C/C=C/C[C@@H](C)C(=O)[C@H]1C(=O)N[C@@H](C(C)C)C(=O)N(C)CC(=O)N(C)[C@@H](CC(C)C)C(=O)N[C@@H](C(C)C)C(=O)N(C)[C@@H](CC(C)C)C(=O)N[C@@H](C)C(=O)N[C@H](C)C(=O)N(C)[C@@H](CC(C)C)C(=O)N(C)[C@@H](CC(C)C)C(=O)N(C)[C@@H](C(C)C)C(=O)N1C [PSC833]
% PGP Uptake Activity (MDR1/P-gp): 0.2057% (2×) and -0.01029% (2×) and -0.1954% (2×)

From article PMC8523698, “Preclinical characterization of an intravenous coronavirus 3CL protease inhibitor for the potential treatment of COVID19” (Nature Communications, 2021)
